Measured values reported in patent US11993640B2, “Treating inflammatory lung disease” (United States Government as represented by the Department …, priority 2019, dated 2024).
Non-standard residues stand in square brackets, D forms with d. Residues, ends and D or L forms follow the SMILES beside them. *: point of attachment. Phenylacetyl(2,3,4,5,6-F5) = O=C(Cc1c(F)c(F)c(F)c(F)c1F)*; Phe(F5) = N[C@@H](Cc1c(F)c(F)c(F)c(F)c1F)C(=O)O; hArg = N=C(N)NCCCC[C@H](N)C(=O)O; 12Ado = NCCCCCCCCCCCC(=O)O; Nle = CCCC[C@H](N)C(=O)O; Orn = NCCC[C@H](N)C(=O)O; Abu = CC[C@H](N)C(=O)O; PhAc = O=C(Cc1ccccc1)*

How the values were obtained:
rat pituitary cells = assay: Inhibition of GHRH(1-29)NH2-stimulated GH release from rat pituitary cells (ELISA); type: cell-based; settings: analog 20 nM
Description: In vitro assessment of the antagonistic activity of GHRH analogs. Rats were decapitated and pituitaries were collected in pre-warmed HBSS (Hanks' Balanced Salt Solution). Tissue was then cut into small pieces and digested in HBSS medium containing 3% BSA, 50 μg/ml gentamycin and 0.5% collagenase for 50 minutes at 37° C. Cells were further dispersed by pipetting and passed through a 100 μm cell strainer with the addition of DMEM containing 50 μg/ml gentamycin, 10% horse serum and 2.5% FBS (growth medium). Cells were harvested at 475×g for 2 minutes, resuspended in fresh growth medium and seeded onto poly-D-lysine-coated 24-well plates (7 pituitaries/plate). Cells were left to recover for 4 days. Growth medium was then replaced with serum-free DMEM for 4 hours and GHRH analogs (at concentration of 20 nM) were added in DMEM containing 0.1% BSA for 30 minutes. Cells were replenished with medium containing the same concentration of the analogs and 1 nM GHRH(1-29)NH2 for 30 minutes. Medium from this step was collected, centrifuged at 800 g for 3 minutes and GH concentration was determined by ELISA (ALPCO Diagnostics, Mill Valley, CA) according to the manufacturer's instruction.

SK-OV-3 xenograft = assay: Xenograft tumor growth in nude mice, ovarian cancer SK-OV-3; type: in vivo; settings: Panel L, 7 weeks, 5 μg/day s.c.
Description: The peptides' activity was compared with GHRH antagonist MIA-602. All statistical analyzses were performed from comparing GHRA antagonists to non-treated tumor (control).
Peptides and chemicals. GHRH antagonists MIA-602 and AVR-GHRH antagonists (see Table 2 above) were synthesized by solid phase methods and purified by HPLC. The peptides were dissolved in DMSO and further diluted in 10% 1, 2-propanediol. The final concentration of peptides was 50 µg/ml in 10% 1, 2-propanediol containing 0.1% of DMSO.
Cell culture. Human cancer cell lines including pancreatic (PANC-1 and CFPAC-1), lung (HCC827 and H460), stomach (NCI-N87), prostate (PC3), brest (MX-1 and HCC-1806), colorectal (HT-29), and ovarian (SK-OV-3 and OVCAR-3) were obtained from the American Type Culture Collection (ATCC) and cultured at 37° C. in a humidified 95% air/5% CO2 atmosphere in the medium recommended by ATCC.
Xenograft models of human cancers in nude mice. Female athymic (NCr nu/nu) nude mice, 5-to 6-weeks-old, obtained from the Envigo labs (Tampa, FL), were housed in laminar airflow cabinets under pathogen-free conditions with a 12-h light/12-h dark schedule, and were fed autoclaved standard chow and water. To generate mice with xenografted tumors, tumor xenografts were initiated by subcutaneous (s.c.) injection of […] human cancer cells into female nude mice. After about 4 weeks the resulting tumors were dissected and collected after removing necrosis tissues. The tumors were then cut into particles with size of ˜3 mm3 and transplanted s.c. by trocar needle into experimental animals. When tumors grew to the size of 50-60 mm3 (by volume), mice were randomized into groups and treated daily for 4-8 weeks by subcutaneous administration of 5 μg of GHRH antagonists MIA-602 or AVR-compounds (2-10 μg as indicated), or vehicle solutions (0.1% DMSO in 10% 1, 2-propanediol) respectively. Tumor sizes were measured weekly.
Statistical analysis. One-way ANOVA followed by Bonferroni comparison were performed. Data are expressed as Mean±SEM. To determine statistical significance between animal groups, two-tailed Student's t-test was conducted. Differences were considered significant when p<0.05.
Results. […] FIG. 1A-N represents in vivo inhibition of tumor growth during the treatment with GHRH antagonist MIA-602 and selected AVR antagonists in nude mice xenografted with various human tumors including pancreatic cancer PANC-1 (FIG. 1A) and CFPAC-1 (FIG. 1I); lung cancer HCC827 (FIGS. 1B, C) and H460 (FIG. 1H); stomach cancer N87 (FIGS. 1D-F); colon cancer HT-29 (FIG. 1G); breast cancer MX-1 and HCC-1806 (FIGS. 1J, K); ovarian cancer SK-OV-3 and OVACAR-3 (FIGS. 1L, M) and prostate cancer PC3 (FIG. 1N). See also Table 5.

[1] = tested on: C57Bl/6J mice treated with bleomycin; assay: Bleomycin lung injury model, lung histopathology scores (inflammation, modified Ashcroft fibrosis); type: in vivo, mouse
Description: Experimental animals. 8-week old C57Bl/6J male mice (The Jackson Laboratory, Bar Harbor, ME) were used in these experiments. Mice weighed about 26 grams at the start. Mice were randomly allocated to the experimental groups and housed in identical filter top cages in a ventilated rack. Mice were exposed to a 12-hour light/dark cycle and had free access to standard laboratory chow and water.
Bleomycin and GHRH-R antagonist treatment. Mice were treated with 0.8 units of bleomycin (Bleomycin for Injection USP, Hospira, Lake Forest, IL) intraperitoneally (IP) on days 1, 3, 7, 10, 14 and 21 (Collins S, Chan-Li Y, Oh M, Vigeland C, Limjunyawong N, Mitzner W, Powell J D, Horton M R (2016). JCI Insight 1(4):1-13). Mice (randomly assigned) were simultaneously treated subcutaneously (sc) with MIA-602 (5 μg/day) or its vehicle (100 μL/day). MIA-602 was dissolved in DMSO (ACS grade; Sigma-Aldrich) and diluted 1:500 in normal saline for daily sc injection on days 0-21.
Tissue preparations. Mice were killed by CO2 inhalation before any treatment, or on days 14 or 28 for micro-CT scans of lungs and harvesting of lung tissue (Vande Velde G, Poelmans J, De Langhe E, Hillen A, Vanoirbeek J, Himmelreich U, Lories R (2016). Dis Model Mech 9:91). The right mainstem bronchus was ligated and the right lung removed and frozen at −80° C. for hydroxyproline (HP) assays. The left lung was filled with 10% buffered formalin at ˜25 cm H2O pressure, the bronchus ligated, and the lung fixed in formalin. Fixed lungs were embedded in wax and 5 μm sections stained with hematoxylin and eosin (H&E) or Masson's trichrome stain.
Lung histopathology. Fibrosis was quantified in trichrome-stained sections using a modification of the Ashcroft score that describes grades of fibrosis. Inflammation in lung tissue was quantified in H&E stained sections (Hubner R, Gitter W, El Mokhtari N, Mathiak M, Both M, Bolte H, Freitag-Wolf S, Bewig B (2008). Biotechniques 44:507-517).
Data analysis. Data are reported as arithmetic means±SEM or SD as indicated. […]

[2] = day 28, bleomycin-treated mice, MIA-602 5 μg/day sc days 1-21

Row | SMILES | Inhibitory effect on the release of GH compared with MIA-602 (rat pituitary cells) | Tumor Growth % (SK-OV-3 xenograft) [%] | % Inhibition (SK-OV-3 xenograft; vs control) [%] | Lung inflammatory changes and fibrosis, histopathology ([1]; bleomycin-treated mice, days 14 and 28) | Lung fibrosis histopathologic score, 5%-95% CI [1, 2] | Lung fibrosis histopathologic score, range [1, 2]
1 | CCCC[C@H](NC(=O)[C@@H](NC(=O)[C@H](CC(=O)O)NC(=O)[C@H](CCC(N)=O)NC(=O)[C@H](CC(C)C)NC(=O)[C@H](CC(C)C)NC(=O)[C@H](CCCCN)NC(=O)[C@H](CCCNC(=N)N)NC(=O)[C@H](C)NC(=O)[C@H](CO)NC(=O)[C@H](CC(C)C)NC(=O)[C@H](CCC(N)=O)NC(=O)[C@H](CC)NC(=O)[C@H](CC(C)C)NC(=O)[C@@H](NC(=O)[C@H](CCCCN)NC(=O)[C@H](CCCNC(=N)N)NC(=O)[C@H](Cc1ccc(OC)cc1)NC(=O)[C@H](CCCCNC(=N)N)NC(=O)[C@H](C)NC(=O)[C@@H](NC(=O)[C@H](Cc1c(F)c(F)c(F)c(F)c1F)NC(=O)[C@@H](NC(=O)[C@H](C)NC(=O)[C@H](CC(=O)O)NC(=O)[C@@H](CCCNC(=N)N)NC(=O)[C@H](Cc1ccc(O)cc1)NC(=O)CCCCCCCCCCCNC(=O)Cc1c(F)c(F)c(F)c(F)c1F)[C@@H](C)CC)[C@@H](C)O)C(C)C)[C@@H](C)CC)C(=O)N[C@H](CCCNC(=N)N)C(=O)N[C@@H](CCCCNC(=N)N)C(=O)NC [AVR-235] ({Phenylacetyl(2,3,4,5,6-F5)-12Ado}-Y[dR]DAI[Phe(F5)]TA[hArg]Y(Me)RKVL[Abu]QLSARKLLQDI[Nle][dR][hArg]-NHMe) | higher inhibitory effects than MIA-602 |  |  |  |  | 
2 | CCCC[C@H](NC(=O)[C@@H](NC(=O)[C@H](CC(=O)O)NC(=O)[C@H](CCC(N)=O)NC(=O)[C@H](CC(C)C)NC(=O)[C@H](CC(C)C)NC(=O)[C@H](CCCN)NC(=O)[C@H](Cc1c[nH]cn1)NC(=O)[C@H](C)NC(=O)[C@H](CO)NC(=O)[C@H](CC(C)C)NC(=O)[C@H](CCC(N)=O)NC(=O)[C@H](CC)NC(=O)[C@H](CC(C)C)NC(=O)[C@@H](NC(=O)[C@H](CCCN)NC(=O)[C@H](Cc1c[nH]cn1)NC(=O)[C@H](Cc1ccc(OC)cc1)NC(=O)[C@H](CCCCNC(=N)N)NC(=O)[C@H](C)NC(=O)[C@@H](NC(=O)[C@H](Cc1c(F)c(F)c(F)c(F)c1F)NC(=O)[C@@H](NC(=O)[C@H](C)NC(=O)[C@H](CC(=O)O)NC(=O)[C@@H](CCCNC(=N)N)NC(=O)[C@H](Cc1ccc(O)cc1)NC(=O)CCCCCCCCCCCNC(=O)Cc1ccccc1)[C@@H](C)CC)[C@@H](C)O)C(C)C)[C@@H](C)CC)C(=O)N[C@H](CCCNC(=N)N)C(=O)N[C@@H](CCCCNC(=N)N)C(N)=O [MIA-602, PhAC-Ada, Tyr D-Arg, Asp, Ala, Ile, 5FPhe, Thr, Ala, Har, Tyr(Me), His, Orn, Val, Leu, Abu, Gin, Leu, Ser, Ala, His, Orn, Leu, Leu, Gin, Asp, Ile, Nle, D-Arg, Har NH2, reference compound] ({PhAc-12Ado}-Y[dR]DAI[Phe(F5)]TA[hArg]Y(Me)H[Orn]VL[Abu]QLSAH[Orn]LLQDI[Nle][dR][hArg]-NH2) |  | 810.1 | 38.0 | Both inflammatory changes and fibrosis were decreased | 1.1-2.9 | 1.0-3.0
